Measured values: patent US20060276455A1, “Use of a mast cell activation or degranulation blocking agent in the manufacture of a medicament for the treatment of cerebral ischemia” (priority 2003, published 2006)

What was measured:
[1] = test system: cerebral hemorrhage in rats; experiment: Surgically induced cerebral hemorrhage (autologous blood injection), outcome at 24 h; details: i.c.v.
Procedure: In anesthesized rats, 2 craniotomies were performed for the introduction of drug infusion and blood. We injected 50 microliters of autologous arterial blood via stereotactically a Hamilton needle tip placed to the caudate putamen (6 mm from skull surface), a common location of spontaneous cerebral hemorrhages.
Animals were allowed to recover and 24 h later their level of neurological deterioration was rated on a 6-point scale: 5=dead, 4=stuporous, moribund, 3=hemiparetic with balance disturbance, 2=hemiparesis, 1=paresis of contralateral paw, 0=normal. The mortality was also recorded by 24 hours.

[2] = test system: focal cerebral ischemia in rats (middle cerebral artery occlusion); experiment: Postischemic neutrophil response (Leder staining) after transient MCA occlusion; type: in vivo, rat; details: i.c.v. pretreatment, 4 h after MCAO, vs control
Source text: We used the suture MCA occlusion model with reperfusion, described elsewhere. Briefly, we exposed the right common carotid artery (CCA) and the right external carotid artery (ECA) through a ventral midline neck incision. We ligated the proximal CCA and the origin of the ECA. We inserted a 4-0 nylon mono-filament suture (Ethilon Nylon Suture, ETHICON) with its tip rounded by heating near a flame and then coated with silicone into the right CCA via an arteriectomy. Reperfusion was accomplished by withdrawing the suture occluder 60 minutes after MCAO, whereafter the animals were allowed to recover. Four hours after MCAO, the rats were killed by injecting intraperitoneally 120 mg of pentobarbital natrium (Mebumat). Cardiac perfusion was performed with the heart still beating but respiration ceased by infusing 250 mL of ice cold 0.9% saline at an inflow pressure of 100 mmHg into the arterial vascular system. […] The densities of intravascular and emigrated neutrophils were counted without prior knowledge of animal grouping in systematically placed target areas, the temporoparietal infarction core, the parasagittal infarct penumbra and the deep thalamic and basal ganglia. In each area, 60 to 100 microscopic fields of 0.1 mm^2 were counted and averaged for each location. […]

Q: With `O=C(O)c1cc(=O)c2c(OCC(O)COc3cccc4oc(C(=O)O)cc(=O)c34)cccc2o1` [disodium cromoglycate] as the compound, how does the “six-point neurological score (0=normal, 5=dead), average” value ([1]; 24 h, saline-treated 3.2, p<0.01) read?
A: Its value is 0.89.

Q: What about the “mortality by 24 hours” value ([1]; saline-treated group 40%) of the same compound?
A: Its value is 0%.

Q: What about the “decrease of density of neutrophils in the infarcted hemisphere” value [2] of the same compound?
A: The value was 37%.
